Columns and labels:
PI3Kα = PI3Kα (Homo sapiens, UniProt P42336); assay: PI3Kα enzyme assay (Transcreener ADP2 TR-FRET Red Assay); format: biochemical; settings: purified recombinant full-length protein; 2 hours pre-incubation with compound; read-out: PI3Kα WT IC50
Protocol: (§1) Activity against PI3Kα and PI3Kα H1047R enzymes were determined in biochemical assays using purified recombinant full-length proteins with the Transcreener ADP^2 TR-FRET Red Assay from Bellbrook Labs. (Catalogue number 3011-10K). Test compounds were dissolved in DMSO and were tested in 11 point 1:3 serial dilutions, typical final concentration range from 50,000 nM to 0.85 nM. Enzymes were pre-incubated with compounds for 2 hours at room temperature prior to initiating the reactions. Assays were initiated with a 2×ATP/PI(4,5)P2 diC8 substrate mixture. After 60 minutes at room temperature, the reactions were quenched with detection reagent and incubated for an additional 60 minutes at room temperature. The plates were read using a multimode reader and the emission ratio of 665 nm to 615 nm was determined. This ratio was converted to percent of control (POC). [1-(high control-sample signal)/(high control-low control)]*100. Wells without compound were used to determine high control values and wells without enzyme were used to determine low control values. The POC values were fit using a four-parameter logistic model and the value where the fit curve was equal to 50 POC was reported as the IC50 using the Signals VitroVivo software package (PerkinElmer). Final assay conditions were: 40 mM HEPES pH 7.5, 20 mM NaCl, 25 mM MgCl2, 0.01% Triton X-100. The enzyme source, catalogue number, final enzyme concentration, and final ATP and PI(4,5)P2 diC8 concentration can be found in the table E10 below.

PI3Kα H1047R = PI3Kα H1047R (Homo sapiens, UniProt P42336, H1047R); assay: PI3Kα H1047R enzyme assay (Transcreener ADP2 TR-FRET Red Assay); format: biochemical; settings: purified recombinant full-length protein; 2 hours pre-incubation with compound
Protocol: as §1

[1] = test system: T47D (PI3Kα-H1047R) cell line; assay: HTRF phospho-AKT(S473) cell assay in T47D cells; format: cell-based, human
Method in brief: (§2)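 T47D (PI3Kα-H1047R; RPMI, 10% FBS, insulin) and SKBR3 (wild-type PI3Kα; McCoy's 5A, 10% FBS) cells treated 2 h at 37 °C with 12-point 1:3 dilutions, top 5 μM and 10 μM respectively, ≤0.5% DMSO. SKBR3 stimulated with 70 ng/ml PDGF-BB for the last 15 min; lysate pAKT(S473) by HTRF, IC50 from curves.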

[2] = test system: SKBR3 (PI3Kα-Wild Type) cell line; assay: HTRF phospho-AKT(S473) cell assay in SKBR3 cells; format: cell-based, human
Method in brief: as §2

[3] = Homo sapiens; T47D (PI3Kα-H1047R) cells, HTRF phospho-AKT(S473), 2 hours compound incubation
[4] = Homo sapiens, SK-BR-3; SKBR3 (PI3Kα-Wild Type) cells, HTRF phospho-AKT(S473), 2 hours compound incubation, PDGF-BB stimulated

Sequence of PI3Kα (P42336 whole entry): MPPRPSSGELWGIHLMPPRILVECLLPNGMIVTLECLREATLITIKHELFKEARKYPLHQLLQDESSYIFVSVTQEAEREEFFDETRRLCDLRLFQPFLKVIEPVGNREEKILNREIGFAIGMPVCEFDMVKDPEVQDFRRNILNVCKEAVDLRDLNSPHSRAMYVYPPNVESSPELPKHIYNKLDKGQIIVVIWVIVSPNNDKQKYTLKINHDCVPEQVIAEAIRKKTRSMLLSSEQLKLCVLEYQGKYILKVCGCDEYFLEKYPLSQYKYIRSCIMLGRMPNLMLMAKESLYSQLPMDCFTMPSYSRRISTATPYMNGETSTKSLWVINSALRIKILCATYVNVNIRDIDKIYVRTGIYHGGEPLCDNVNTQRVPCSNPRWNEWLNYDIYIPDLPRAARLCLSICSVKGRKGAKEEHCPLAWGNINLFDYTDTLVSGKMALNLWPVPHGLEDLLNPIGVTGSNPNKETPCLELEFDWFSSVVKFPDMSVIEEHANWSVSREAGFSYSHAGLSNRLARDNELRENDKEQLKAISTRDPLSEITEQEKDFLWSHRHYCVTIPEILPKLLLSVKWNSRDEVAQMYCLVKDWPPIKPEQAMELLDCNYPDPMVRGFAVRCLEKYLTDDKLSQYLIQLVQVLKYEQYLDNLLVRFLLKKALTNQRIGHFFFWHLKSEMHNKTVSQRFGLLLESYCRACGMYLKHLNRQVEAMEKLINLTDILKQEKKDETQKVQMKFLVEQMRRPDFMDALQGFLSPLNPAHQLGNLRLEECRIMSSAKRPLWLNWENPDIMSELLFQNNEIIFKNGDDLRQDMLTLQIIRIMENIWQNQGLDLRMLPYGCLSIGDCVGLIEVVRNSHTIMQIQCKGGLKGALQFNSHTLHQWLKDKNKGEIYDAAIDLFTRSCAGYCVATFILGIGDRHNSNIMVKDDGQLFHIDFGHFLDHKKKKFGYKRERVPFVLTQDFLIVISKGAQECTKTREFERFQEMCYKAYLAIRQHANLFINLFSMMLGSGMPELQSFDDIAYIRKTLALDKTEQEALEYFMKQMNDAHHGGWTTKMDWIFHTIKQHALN
Sequence of PI3Kα (P27986 2-724 partner): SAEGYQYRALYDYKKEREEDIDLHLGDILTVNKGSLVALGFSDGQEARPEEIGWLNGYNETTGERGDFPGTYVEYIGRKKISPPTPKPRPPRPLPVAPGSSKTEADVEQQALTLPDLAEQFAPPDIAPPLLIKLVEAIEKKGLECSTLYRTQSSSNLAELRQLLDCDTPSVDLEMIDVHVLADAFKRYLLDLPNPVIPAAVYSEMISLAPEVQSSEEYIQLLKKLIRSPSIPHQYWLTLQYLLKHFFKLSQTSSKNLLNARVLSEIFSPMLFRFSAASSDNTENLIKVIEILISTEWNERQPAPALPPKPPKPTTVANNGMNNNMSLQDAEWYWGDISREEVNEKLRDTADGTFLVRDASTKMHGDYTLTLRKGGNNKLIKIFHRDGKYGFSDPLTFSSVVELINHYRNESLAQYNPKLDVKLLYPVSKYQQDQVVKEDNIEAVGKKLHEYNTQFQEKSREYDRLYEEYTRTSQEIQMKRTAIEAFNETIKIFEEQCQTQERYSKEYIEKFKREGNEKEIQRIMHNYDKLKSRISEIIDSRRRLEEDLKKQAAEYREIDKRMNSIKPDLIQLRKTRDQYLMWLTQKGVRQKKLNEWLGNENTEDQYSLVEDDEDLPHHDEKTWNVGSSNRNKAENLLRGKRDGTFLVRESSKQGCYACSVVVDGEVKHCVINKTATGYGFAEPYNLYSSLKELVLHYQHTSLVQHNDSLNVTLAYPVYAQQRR
Sequence of PI3Kα H1047R (P42336 whole entry H1047R): as the sequence (P42336 whole entry) above, with H1047R counted along it
Sequence of PI3Kα H1047R (P27986 2-724 partner): as the sequence (P27986 2-724 partner) above

IC50 (PI3Kα) | IC50 (PI3Kα H1047R) | IC50 [1, 3] | IC50 [2, 4] | IC50 ([1]; Homo sapiens; HTRF phospho-AKT(S473), T47D (PI3Kα-H1047R) cells, 2 hours compound incubation) | IC50 ([2]; Homo sapiens, SK-BR-3; HTRF phospho-AKT(S473), SKBR3 (PI3Kα-Wild Type) cells, 2 hours compound incubation, PDGF-BB stimulated) | SMILES
≥ 1000 nM | 250 to 500 nM | 250 to 500 nM | 1000 to 5000 nM | – | – | Cc1cc([C@@H](C)Nc2ccc(Cl)nc2C(=O)NS(C)(=O)=O)c2nc(N3CCC(F)(F)C[C@@H]3C)n(C)c(=O)c2c1 (mixture of isomers) [Compound 12, 6-chloro-3-(((R)-1-(2-((S)-4,4-difluoro-2-methylpiperidin-1-yl)-3,6-dimethyl-4-oxo-3,4-dihydroquinazolin-8-yl)ethyl)amino)-N-(methylsulfonyl) picolinamide AND 6-chloro-3-(((R)-1-(2-((R)-4,4-difluoro-2-methylpiperidin-1-yl)-3,6-dimethyl-4-oxo-3,4-dihydroquinazolin-8-yl)ethyl)amino)-N-(methylsulfonyl) picolinamide]
≥ 1000 nM | 100 to 250 nM | 500 to 1000 nM | ≥ 5000 nM | – | – | Cc1cc([C@@H](C)Nc2ccc(Cl)nc2S(=O)(=O)NC(=O)C(C)C)c2nc(N3Cc4ccc(F)cc4C3)n(C)c(=O)c2c1 [Compound 80, (R)-N-((6-chloro-3-((1-(2-(5-fluoroisoindolin-2-yl)-3,6-dimethyl-4-oxo-3,4-dihydroquinazolin-8-yl)ethyl)amino)pyridin-2-yl)sulfonyl)isobutyramide]
≥ 1000 nM | ≥ 1000 nM | – | – | – | – | Cc1cc([C@@H](C)Nc2ccc(Cl)nc2C(=O)NS(C)(=O)=O)c2nc(N(C)CC3(C(F)(F)F)CC3)n(C)c(=O)c2c1 [Compound 43, (R)-6-chloro-3-((1-(3,6-dimethyl-2-(methyl((1-(trifluoromethyl)cyclopropyl)methyl)amino)-4-oxo-3,4-dihydroquinazolin-8-yl)ethyl)amino)-N-(methylsulfonyl) picolinamide]

Further lines, the compound ahead of its results:

SMILES | IC50 (PI3Kα) | IC50 (PI3Kα H1047R) | IC50 [1, 3] | IC50 [2, 4] | IC50 ([1]; Homo sapiens; HTRF phospho-AKT(S473), T47D (PI3Kα-H1047R) cells, 2 hours compound incubation) | IC50 ([2]; Homo sapiens, SK-BR-3; HTRF phospho-AKT(S473), SKBR3 (PI3Kα-Wild Type) cells, 2 hours compound incubation, PDGF-BB stimulated)
C[C@@H](Nc1ccc(Cl)nc1C(=O)NS(C)(=O)=O)c1cc(F)cc2c(=O)n(C)c(-c3cncc(F)c3)nc12 [Compound 90, (R)-6-chloro-3-((1-(6-fluoro-2-(5-fluoropyridin-3-yl)-3-methyl-4-oxo-3,4-dihydroquinazolin-8-yl)ethyl)amino)-N-(methylsulfonyl) picolinamide] | ≥ 1000 nM | ≥ 1000 nM | 1000 to 5000 nM | 1000 to 5000 nM | – | –
Cc1cc([C@@H](C)Nc2ccc(Cl)nc2C(=O)NS(C)(=O)=O)c2nc(N(C)CC3CC3)n(C)c(=O)c2c1 [Compound 14, (R)-6-chloro-3-((1-(2-((cyclopropylmethyl) (methyl)amino)-3,6-dimethyl-4-oxo-3,4-dihydroquinazolin-8-yl)ethyl)amino)-N-(methylsulfonyl) picolinamide] | ≥ 1000 nM | 250 to 500 nM | 250 to 500 nM | 1000 to 5000 nM | – | –
Cc1cc([C@@H](C)Nc2ccc(Cl)nc2C(=O)NS(C)(=O)=O)c2nc(N3CCC(F)(F)C[C@@H]3C)n(C)c(=O)c2c1 (single isomer, unassigned) [Compound 42, 6-chloro-3-(((R)-1-(2-((R*)-4,4-difluoro-2-methylpiperidin-1-yl)-3,6-dimethyl-4-oxo-3,4-dihydroquinazolin-8-yl)ethyl)amino)-N-(methylsulfonyl) picolinamide] | ≥ 1000 nM | 500 to 1000 nM | 250 to 500 nM | 1000 to 5000 nM | – | –
Cc1cc([C@@H](C)Nc2ccc(Cl)nc2C(=O)NS(C)(=O)=O)c2nc(N3C[C@H](C)O[C@@H](C)C3)n(C)c(=O)c2c1 [Compound 25, 6-chloro-3-(((R)-1-(2-((2S,6S)-2,6-dimethylmorpholino)-3,6-dimethyl-4-oxo-3,4-dihydroquinazolin-8-yl)ethyl)amino)-N-(methylsulfonyl) picolinamide] | ≥ 1000 nM | ≥ 1000 nM | 250 to 500 nM | 1000 to 5000 nM | – | –
Cc1cc([C@@H](C)Nc2ccc(Cl)nc2C(=O)NS(C)(=O)=O)c2nc(N3CCN(c4nccnc4C)CC3)n(C)c(=O)c2c1 [Compound 553, (R)-6-chloro-3-((1-(3,6-dimethyl-2-(4-(3-methylpyrazin-2-yl)piperazin-1-yl)-4-oxo-3,4-dihydroquinazolin-8-yl)ethyl)amino)-N-(methylsulfonyl) picolinamide] | – | – | – | – | < 250 nM | 1000 to 5000 nM
